According to patent US8975249B2, “Heterocyclic compounds and uses thereof” (Celgene Avilomics Research, Inc., priority 2010, dated 2015):
Read-outs that look alike come from different tables or passages of the source.

Legend:
[1] = tested on: H1975 cells (EGFR L858R/T790M); assay: Cell proliferation (CellTiter Glo), H1975 cells
[2] = target: EGFR double mutation L858R/T790M (H1975 cells) (Homo sapiens (Human), UniProt P00533, L858R/T790M); assay: Phospho-EGFR signaling immunoblot in H1975 cells; type: cell-based; settings: for EC50: H1975 cells, 1 hr treatment, phospho-EGFR (Y1068); for Ratio WT/mutant (H1975): signaling EC50 WT EGFR / H1975
Protocol: (§1) A431 human epidermoid carcinoma, H1975 human NSCLC and HCC827 human NSCLC adenocarcinoma cells were obtained from the American Type Culture Center (Manassas, Va.). A431 cells were grown in DMEM (Invitrogen, Carlsbad, Calif.) supplemented with 10% FBS (HyClone, South Logan, Utah) and 1% Penicillin-Streptomycin (P/S, Lonza, Walkersville, Md.).
(§2) All primary antibodies were obtained from Cell Signaling (Danvers, Mass.) and used at 1:1000. Secondary antibodies were used at 1:10,000. Goat anti-mouse IgG IRDye 800CW antibody was obtained from LiCor Biosciences (Lincoln, Nebr.) and goat anti-rabbit IgG Alexa Fluor 680 was obtained from Invitrogen.
(§3) Cells were grown in 12-well plates (Corning, Coring, N.Y.) to 90% confluence and then incubated in low-serum (0.1% FBS) media for 16-18 hr. […] A431 cells were then stimulated with 50 ng/ml EGF (Peprotech, Rocky Hill, N.J.) for 15 min. After treatment, cell monolayers were washed with cold PBS (Invitrogen) and immediately lysed by scrapping into 60 uL cold Cell Extraction Buffer (Invitrogen) supplemented with Complete Protease inhibitors (Roche, Indianapolis, Ind.) and PhosphoSTOP (Roche) phosphatase inhibitors.
(§4) Phospho-protein signals were quantitated using Odyssey Infrared Imaging (Li-Cor Biosciences).
(§5) To assess phosphor-EGFR signaling, blots were probed with rabbit anti-Phospho-EGFR (Y1068) and mouse total anti-EGFR antibodies. Phospho-EGFR signal was normalized to total EGFR expression for each sample. […] Normalized data was fitted using a sigmoidal curve analysis program (Graph Pad Prism version 5) with variable Hill slope to determine the EC50 values.
(§6) The compound numbers recited in Table 4 correspond to the compound numbers in Table 1.

WT EGFR (A431 cells) = WT EGFR (A431 cells) (Homo sapiens (Human), UniProt P00533); assay: Phospho-EGFR signaling immunoblot in A431 cells (WT EGFR); type: cell-based; settings: 1 hr treatment, EGF stimulated, phospho-EGFR (Y1068)
Protocol: as §1, §2, §3, §4, §5, §6

[3] = target: EGFR delE746-A750 deletion mutation (HCC827 cells) (Homo sapiens (Human), UniProt P00533, DEL746-750); assay: Phospho-EGFR signaling immunoblot in HCC827 cells; type: cell-based; settings: for EC50: HCC827 cells, 1 hr treatment, phospho-EGFR (Y1068); for Ratio WT/mutant (HCC827): signaling EC50 WT EGFR / HCC827
Protocol: as §1, §2, §3, §4, §5, §6

EGFR (WT) = EGFR (WT) (Homo sapiens (Human), UniProt P00533); assay: Omnia biochemical assay, EGFR-WT active enzyme; settings: [EGFR-WT]=5 nM, [ATP]=15 uM, 30 min pre-incubation
Protocol: Kinase reactions were started with the addition of 45 μL of the ATP/Tyr-Sox peptide substrate mix and monitored every 71 seconds for 60 minutes at λex360/λem485 in a Synergy^4 plate reader from BioTek (Winooski, Vt.).
The compound numbers correspond to the compound numbers in Table 1.

[4] = tested on: HCC827 cells (EGFR delE746-A750); assay: Cell proliferation (CellTiter Glo), HCC827 cells
Protocol: Cells were plated in Growth Media supplemented with 5% FBS and 1% P/S at a density of 3,000 cells per well in 96 well tissue culture plates (Corning). […] Growth inhibition (GI50) values were determined by Graph Pad Prism.

[5] = proliferation GI50 WT EGFR / H1975
[6] = proliferation GI50 WT EGFR / HCC827

| SMILES | Ratio WT/mutant (H1975) [1, 5] | EC50 [2] | Ratio WT/mutant (H1975) [2] | EC50 (WT EGFR (A431 cells)) | EC50 [3] | Ratio WT/mutant (HCC827) [3] | IC50 (EGFR (WT)) | Ratio WT/mutant (HCC827) [4, 6] | Ratio WT/mutant (H1975) [1] | Ratio WT/mutant (HCC827) [4] |
| --- | --- | --- | --- | --- | --- | --- | --- | --- | --- | --- |
| C=CC(=O)Nc1cccc(Nc2nc(Nc3ccc(N4CCOCC4)cc3OC(F)F)ncc2C(F)(F)F)c1 [Compound I-14, N-(3-(2-(2-(difluoromethoxy)-4-morpholinophenylamino)-5-(trifluoromethyl)pyrimidin-4-ylamino)phenyl)acrylamide] | >5 | 10 to 100 nM | >15 | 500 to 1000 nM | 10 to 100 nM | >15 | 10 to 30 nM | >10 | – | – |
| C=CC(=O)Nc1cccc(Nc2nc(Nc3ccc(N4CCN(S(C)(=O)=O)CC4)cc3OC)ncc2C(F)(F)F)c1 [Compound I-17, N-(3-(2-(2-methoxy-4-(4-(methylsulfonyl)piperazin-1-yl)phenylamino)-5-(trifluoromethyl)pyrimidin-4-ylamino)phenyl)acrylamide] | >10 | 10 to 100 nM | >30 | > 1000 nM | 100 to 500 nM | >5 | 10 to 30 nM | >15 | – | – |
| C=CC(=O)Nc1cccc(Nc2nc(Nc3ccc(N4CCN(C(C)=O)CC4)cc3OC)ncc2Br)c1 [Compound I-40, N-(3-(2-(4-(4-acetylpiperazin-1-yl)-2-methoxyphenylamino)-5-bromopyrimidin-4-ylamino)phenyl)acrylamide] | >5 | > 1000 nM | >1 | > 1000 nM | – | – | 10 to 30 nM | >10 | – | – |
| C=CC(=O)Nc1cccc(Nc2nc(Nc3ccc(N4CCN(S(C)(=O)=O)CC4)cc3OC)ncc2Cl)c1 [Compound I-41, N-(3-(5-chloro-2-(2-methoxy-4-(4-(methylsulfonyl)piperazin-1-yl)phenylamino)pyrimidin-4-ylamino)phenyl)acrylamide] | >1 | > 1000 nM | >1 | > 1000 nM | – | – | 30 to 100 nM | >20 | – | – |
| C=CC(=O)Nc1cccc(Nc2nc(Nc3ccc(N4CCCN(C(=O)OC(C)(C)C)CC4)cc3OC)ncc2C(F)(F)F)c1 [Compound I-44, tert-butyl 4-(4-(4-(3-acrylamidophenylamino)-5-(trifluoromethyl)pyrimidin-2-ylamino)-3-methoxyphenyl)-1,4-diazepane-1-carboxylate] | >5 | 500 to 1000 nM | >5 | > 1000 nM | – | – | 300 to 1000 nM | >5 | – | – |
| C=CC(=O)Nc1cccc(Oc2nc(Nc3ccc(N4CCN(C(=O)OC(C)(C)C)CC4)cc3OC)ncc2Cl)c1 [Compound I-46, tert-butyl 4-(4-(4-(3-acrylamidophenoxy)-5-chloropyrimidin-2-ylamino)-3-methoxyphenyl)piperazine-1-carboxylate] | – | 100 to 500 nM | >10 | > 1000 nM | < 10 nM | >50 | 100 to 300 nM | – | >1 | >10 |
| C=CC(=O)Nc1cccc(Nc2nc(Nc3ccc(N4CCN(C(C)=O)[C@H](C(=O)OC)C4)cc3OC)ncc2C(F)(F)F)c1 [Compound I-48, (S)-methyl 1-acetyl-4-(4-(4-(3-acrylamidophenylamino)-5-(trifluoromethyl)pyrimidin-2-ylamino)-3-methoxyphenyl)piperazine-2-carboxylate] | >10 | 10 to 100 nM | >50 | > 1000 nM | – | – | 10 to 30 nM | >15 | – | – |
| C=CC(=O)Nc1cccc(Nc2nc(Nc3ccc(N4CCS(=O)(=O)CC4)cc3OC)ncc2C(F)(F)F)c1 [Compound I-49, N-(3-(2-(2-methoxy-4,4-dioxo-4-thiomorpholinophenylamino)-5-(trifluoromethyl)pyrimidin-4-ylamino)phenyl)acrylamide] | >10 | 10 to 100 nM | >20 | > 1000 nM | – | – | 1 to 10 nM | >25 | – | – |
